{"source": "paper PMC3850926", "about": "“Evaluation of the adverse event profile and pharmacodynamics of toceranib phosphate administered to dogs with solid tumors at doses below the maximum tolerated dose” (BMC Veterinary Research, 2013)", "key": {"[1]": {"assay": "Toceranib plasma concentrations (LC-MS/MS) in dogs with solid tumors", "assay_type": "in vivo, dog", "settings": "for Cmax: dog, plasma, oral", "protocol": "(§1) A total of 40 dogs were enrolled in this study, with dogs initially assigned to toceranib at 2.5 mg/kg or 2.75 mg/kg EOD. All dogs were placed on famotidine at 0.5-1 mg/kg once per day at study initiation and owners were instructed to administer the toceranib in the morning with food. Physical examination, routine bloodwork (CBC, biochemistry profile) and blood sampling for assessment of toceranib and VEGF plasma concentrations was performed pretreatment and on days 0, 7, 14 and 30 of treatment. […] Owners of dogs that experienced CR, PR, or SD at study day 30 were offered the option of continuing toceranib administration for an additional 6 months (provided at no cost), although patient data was not officially captured beyond day 30.\n(§2) Blood was collected into EDTA tubes and centrifuged at 3000 × g for 10 minutes. Plasma was then collected and split evenly into two portions in cryovials, then stored at -80°C until analysis was performed for toceranib and VEGF concentrations.\nToceranib was quantitated in plasma samples using the method previously described. Briefly, 50 μL aliquots of plasma were fortified with an internal standard (IS), a deuterated toceranib analog. Toceranib and the IS were extracted from the plasma by protein precipitation using acetonitrile. The analyte and IS are light sensitive and undergo photoisomerization when exposed to light. Therefore, the 96-well plates were protected from light by wrapping the bottom and sides with foil and securing with adhesive tape. Calibration standards (1 to 1000 ng/mL) and quality control (QC) samples were prepared with separate weighing of toceranib reference material (Pfizer, Kalamazoo, MI, 98.1% purity). Standard and QC solutions were prepared by serially diluting a stock solution (100 μg/mL in methanol) into control canine plasma so that no standard or QC sample contained more that 1% methanol. Study samples were analyzed as single replicates.\nThe prepared samples were injected onto a Zorbax StableBond CN column and elution of toceranib and the IS accomplished with an acetonitrile:15 mM ammonium formate solution (pH 3.25) 30/70 v/v mobile phase with a 80/20 v/v rinse for 2.3 minutes at 5 minutes after each injection. Detection was accomplished using MS/MS using a Sciex 4000 triple-quadrupole mass spectrometer with Turboionspray ionization source (MDS Sciex, Toronto, Canada). Transition ions of m/z 397.2 → 283.2 for toceranib and 401.3 → 283.2 for the IS were used. The standard curves were generated using peak area ratios of toceranib to the IS and a 1/concentration^2 weighted quadratic regression. Toceranib concentrations were determined by interpolation over the quantitation range of 1.00 ng/mL to 1000 ng/mL."}, "[2]": {"tested_on": "VEGF", "assay": "Plasma VEGF concentrations (Canine VEGF Quantikine ELISA)", "assay_type": "in vivo, dog", "protocol": "as §1, §2\nA solid phase sandwich ELISA was used to measure plasma concentrations of VEGF. […] All standards and samples were performed in duplicate and the absorbance reading at […] was subtracted from the absorbance reading at […].\nVEGF concentrations were analyzed in terms of percent change from baseline. […]"}, "[3]": {"tested_on": "solid tumors", "assay": "Tumor response assessment (RECIST v.1.1)", "assay_type": "in vivo, dog", "protocol": "as §1\nTumor assessments were performed on days 0, 7, 14 and 30 of study. Tumor assessment was performed using caliper measurement with digital photography documentation, thoracic radiography, ultrasonography, or spiral computerized tomography (CT) as indicated. Determination of antitumor efficacy was based on objective tumor assessments made according to the RECIST v.1.1 guidelines using unidimensional measurements. Response to therapy was defined as complete response (CR, resolution of all target and non-target lesions, no new lesions), partial response (PR, at least 30% decrease in the longest diameter of target lesions, no progression of non-target lesions, and no new lesions), stable disease (SD, decrease in target lesions of less than 30% or increase of target lesions less than 20%, no progression of non-target lesions, and no new lesions) or progressive disease (PD, greater than 20% increase in target lesions, progression of non-target, new lesions). Dogs were defined as experiencing clinical benefit if they had CR, PR, or SD."}, "[4]": {"tested_on": "AGASACA, thyroid carcinomas, head and neck carcinomas, nasal tumors", "set-up": "method as in PMID 22236194", "settings": "median dose 2.8 mg/kg, cited from earlier work"}, "[5]": {"tested_on": "target receptor tyrosine kinases", "set-up": "method as in PMID 12538485", "settings": "established in rodent studies; cited from earlier work"}, "[6]": {"tested_on": "dogs with MCT", "settings": "dog, in vivo, cited from earlier work"}}, "note": "“Also recorded” adds a separate entry of the source. Read-outs that look alike come from different tables or passages of the source."}
{"smiles": "Cc1[nH]c(/C=C2\\C(=O)Nc3ccc(F)cc32)c(C)c1C(=O)NCCN1CCCC1", "note": "[toceranib, Toceranib phosphate]", "values": [{"measurement": "course of presumed Cmax plasma concentration", "setting": "[1]; EOD regimen, levels out by day 30", "value": "increased gradually in most dogs over the first 2 weeks of dosing"}, {"measurement": "dogs with Cmax at 12 hours (number)", "setting": "[1]; day 30", "value": 12, "unit": "dogs"}, {"measurement": "reported Cmax as percent of the 12 hour concentration", "setting": "[1]; day 30, the 12 dogs with Cmax at 12 hours", "value": "51% to 98%"}, {"measurement": "Cmax", "setting": "[1]; all dose ranges above 2.4 mg/kg, days 0, 7, 14, 30, read-out: median Cmax", "value": "> 40", "unit": "ng/mL"}, {"measurement": "Cmax", "setting": "[1]; dose ranges 2.4-2.9 mg/kg EOD, by day 30, read-out: mean presumed Cmax", "value": "100 to 200", "unit": "ng/mL"}, {"measurement": "Median plasma concentration measured at 6 or 8 hours, level after first two weeks", "setting": "[1]; dogs dosed 2.4-2.9 mg/kg EOD", "value": "100 to 120", "unit": "ng/mL"}, {"measurement": "difference among dosing groups in 6 or 8 hour drug concentrations (presumed Cmax)", "setting": "[1]; dogs dosed 2.4-2.9 mg/kg, each time point", "value": "no significant difference"}, {"measurement": "plasma drug concentration relative to the other dose groups", "setting": "[1]; dogs dosed at 2.30-2.39 mg/kg (3 dogs)", "value": "lower concentrations of drug at all time points"}, {"measurement": "average 6–8 hr plasma concentration", "setting": "[1]; dogs with solid tumors, 2.4-2.9 mg/kg every other day", "value": "100 to 120", "unit": "ng/mL"}, {"measurement": "change in plasma VEGF concentrations over the 30 day treatment period", "setting": "[2]; 8 hours post dosing, days 0, 7, 14, 30, p < 0.001", "value": "increase significantly; also recorded: increased over time"}, {"measurement": "association of change in VEGF with Cmax and Tmax", "setting": "[2]; linear mixed models", "value": "associated with Cmax (p < 0.001), but not Tmax (p = 0.74)"}, {"measurement": "average time dogs remained on toceranib after day 30", "setting": "[3]; 35 of the 40 dogs", "value": 16.7, "unit": "weeks"}, {"measurement": "PD (number of dogs)", "setting": "[3]; Nasal carcinoma, N 5", "value": 2}, {"measurement": "PR (number of dogs)", "setting": "[3]; Salivary gland adenocarcinoma, N 1", "value": 1}, {"measurement": "PD (number of dogs)", "setting": "[3]; Soft tissue sarcoma, N 7", "value": 2}, {"measurement": "PR (number of dogs)", "setting": "[3]; Squamous cell carcinoma, N 4", "value": 2}, {"measurement": "PR (number of dogs)", "setting": "[3]; Thyroid carcinoma, N 7", "value": 2}, {"measurement": "clinical benefit (number of dogs)", "setting": "[3]; over 30 days", "value": "36/40"}, {"measurement": "PD (number of dogs), all tumor types", "setting": "[3]; over 30 days, 40 dogs", "value": 4, "unit": "dogs"}, {"measurement": "PD (percent of dogs)", "setting": "[3]; over 30 days, 40 dogs", "value": 10, "unit": "%"}, {"measurement": "PR (number of dogs), all tumor types", "setting": "[3]; over 30 days, 40 dogs", "value": "5/40"}, {"measurement": "PR (percent of dogs)", "setting": "[3]; over 30 days, 40 dogs", "value": 12.5, "unit": "%"}, {"measurement": "overall clinical benefit rate (CR + PR + SD)", "setting": "[3]; over 30 days, 40 dogs", "value": 90, "unit": "%"}, {"measurement": "dogs that transitioned from SD to PR after day 30", "setting": "[3]; thyroid carcinoma", "value": "one"}, {"measurement": "dogs that transitioned to CR after day 30", "setting": "[3]; two SCC and one salivary gland adenocarcinoma", "value": 3, "unit": "dogs"}, {"measurement": "clinical benefit rate (CR + PR + SD)", "setting": "[4]", "value": "exceeding 80%"}, {"measurement": "objective response rates", "setting": "[4]; varied by tumor type", "value": "25-75%"}, {"measurement": "plasma concentration threshold for receptor (target) inhibition in vivo", "setting": "[5]", "value": 40, "unit": "ng/mL"}, {"measurement": "dogs with dose changed (drug holiday and/or dose reduction)", "setting": "[6]; 3.25 mg/kg", "value": 48.3, "unit": "%"}, {"measurement": "dogs that had a dose reduction due to AEs", "setting": "[6]", "value": "approximately 20%"}]}
